Assays:
JAK2 [1] = target: T1, JAK2 (Homo sapiens, UniProt O60674); test: Cellular JAK2 activity assay: EPO-stimulated STAT5 phosphorylation in TF-1 cells; type: cell-based; design: endogenous in cells; host or cells: TF-1 cells (ATCC); conditions: EPO (10 U/mL), pSTAT5, read-out: IC50 Cell JAK2
Description: (§1) In TF-1 cells, IL-6 stimulation leads to phosphorylation of STAT3 through JAK1, while EPO stimulants phosphorylation of STAT5 via JAK2.
(§2) TF-1 cells were obtained from American Type Culture Collection (ATCC). TF-1 cells were starved overnight (cell density was 100,000 cells/well at plating) in OptiMEM medium without phenol red containing 0.5% fetal bovine serum (FBS), 0.1 mM non-essential amino acids (NEAA), 1 mM sodium pyruvate at 37° C. The compound was serially diluted in DMSO, added to TF-1 cells and incubated at 37° C. for 20 minutes. The final concentration of DMSO was 0.2%. Then, human recombinant cytokine IL-6 (30 ng/mL) or EPO (10 U/mL) was added to the wells containing TF-1 cells. After the cell plate was incubated for 30 minutes, cells were lysed, and the phosphorylation of STAT3 (IL-6) or STAT5 (EPO) in the cell lysate (pSTAT3/total STAT3 Elisa Kit: CST #7300C/CST #7305C; pSTAT5 and total STAT5 Elisa Kit: Abcam #ab205715) was measured. The IC50 value was determined as the concentration of the compound required to inhibit STAT phosphorylation by 50% relative to the measured DMSO control.

JAK1 [2] = target: T2, JAK1 (Homo sapiens, UniProt P23458); test: Cellular JAK1 activity assay: IL-6-stimulated STAT3 phosphorylation in TF-1 cells; type: cell-based; design: endogenous in cells; host or cells: TF-1 cells (ATCC); conditions: IL-6 (30 ng/mL), pSTAT3, read-out: IC50 Cell JAK1
Description: as §1, §2

Mouse pharmacokinetics = type: in vivo; conditions: CD-1 mice, 5 mg/kg, P.O.
Description: Test compound was intravenously (IV) or orally (PO) administrated to CD-1 mice. Blood samples were collected at different time points as indicated below. The concentration of the compounds in the mouse plasma was determined by LC-MS/MS and related parameters were calculated. The details are as follows: the required amount of the test product was taken to prepare a solution of the required concentration for intravenous injection or oral administration. The age of the animals was about 6-8 weeks at the beginning of the dosing experiment. Blood sampling time points are 0.083 h, 0.25 h, 0.5 h, 1 h, 2 h, 4 h, 8 h and 24 h after compound administration. The Phoenix WinNonlin 7.0 software was used to calculate the pharmacokinetic parameters through the blood drug concentration data at different time points.

JAK2 [3] = target: T1, JAK2; test: In vitro JAK2 kinase activity assay (HTRF kinEASE TK); type: biochemical; design: purchased Carna Biosciences; conditions: 2.7 μM ATP, 25 minutes, room temperature; read-out: IC50 JAK2 (enzyme activity assay)
Description: (§3) Recombinant human JAK1 protein was purchased from Thermo Fisher. JAK2 and JAK3 proteins were purchased from Carna Biosciences. HTRF kinEASE TK kit was purchased from Cisbio Bioassays. BioTek microplate reader Synergy Neo 2 was used to read the plate.
(§4) The test compounds were of 4-fold serial dilution, and the final concentration ranged from 10 μM to 0.04 nM in duplicates for each concentration. The concentration of DMSO in the reaction system was 1%.
(§5) The reaction included 0.001 ng/μl JAK 2 protein kinase, 1 μM TK Substrate-biotin peptide substrate, 2.7 μM ATP, 1× enzymatic buffer, 5 mM MgCl2, and 1 mM DTT. The detection plate was White Proxiplate 384-Plus plate (PerkinElmer), and the mixture (10 μl) was reacted at room temperature for 25 minutes.
(§6) Reaction detection: 10 μl of detection reagent was added to the reaction plate containing final concentration of 0.125 μM of SA-XL665 and 5 μl 1×TK-Antibody. The mixture was incubated overnight at room temperature. The plate was read using Synergy Neo 2.
(§7) Data analysis: 665/620 Ratio was converted into inhibition rate (%) through the following formula: inhibition rate (%)=(Ratiomax−Ratiotest)/(Ratiomax−Ratiomin)×100%. Ratiomax is a positive control without detection compound, Ratiomin is a negative control without detection compound and kinase, Ratiotest is the detection value of each concentration of different compounds. 4 parameter curve fitting was performed to measure the IC50 (nM) values. The details are shown in, Table 1.

JAK1 [4] = target: T2, JAK1; test: In vitro JAK1 kinase activity assay (HTRF kinEASE TK); type: biochemical; design: purchased Thermo Fisher; conditions: 1.1 μM ATP, 60 minutes, room temperature; read-out: IC50 JAK1 (enzyme activity assay)
Description: as §3, §4
as §5, with “0.5” for “0.001”, “1” for “2”, “1.1” for “2.7”, “MgCl2,” for “MgCl2, and”, “MnCl2, 1 mM DTT, and 2.5 nM SEB.” for “DTT.”, “60” for “25”
as §6, §7

JAK3 protein = target: T3, JAK3 protein (Homo sapiens, UniProt P52333); test: In vitro JAK3 kinase activity assay (HTRF kinEASE TK); type: biochemical; conditions: 0.75 μM ATP, 25 minutes, room temperature; read-out: IC50 JAK3 (enzyme activity assay)
T3 construct: purchased Carna Biosciences
T3 sequence (P52333 1-1124): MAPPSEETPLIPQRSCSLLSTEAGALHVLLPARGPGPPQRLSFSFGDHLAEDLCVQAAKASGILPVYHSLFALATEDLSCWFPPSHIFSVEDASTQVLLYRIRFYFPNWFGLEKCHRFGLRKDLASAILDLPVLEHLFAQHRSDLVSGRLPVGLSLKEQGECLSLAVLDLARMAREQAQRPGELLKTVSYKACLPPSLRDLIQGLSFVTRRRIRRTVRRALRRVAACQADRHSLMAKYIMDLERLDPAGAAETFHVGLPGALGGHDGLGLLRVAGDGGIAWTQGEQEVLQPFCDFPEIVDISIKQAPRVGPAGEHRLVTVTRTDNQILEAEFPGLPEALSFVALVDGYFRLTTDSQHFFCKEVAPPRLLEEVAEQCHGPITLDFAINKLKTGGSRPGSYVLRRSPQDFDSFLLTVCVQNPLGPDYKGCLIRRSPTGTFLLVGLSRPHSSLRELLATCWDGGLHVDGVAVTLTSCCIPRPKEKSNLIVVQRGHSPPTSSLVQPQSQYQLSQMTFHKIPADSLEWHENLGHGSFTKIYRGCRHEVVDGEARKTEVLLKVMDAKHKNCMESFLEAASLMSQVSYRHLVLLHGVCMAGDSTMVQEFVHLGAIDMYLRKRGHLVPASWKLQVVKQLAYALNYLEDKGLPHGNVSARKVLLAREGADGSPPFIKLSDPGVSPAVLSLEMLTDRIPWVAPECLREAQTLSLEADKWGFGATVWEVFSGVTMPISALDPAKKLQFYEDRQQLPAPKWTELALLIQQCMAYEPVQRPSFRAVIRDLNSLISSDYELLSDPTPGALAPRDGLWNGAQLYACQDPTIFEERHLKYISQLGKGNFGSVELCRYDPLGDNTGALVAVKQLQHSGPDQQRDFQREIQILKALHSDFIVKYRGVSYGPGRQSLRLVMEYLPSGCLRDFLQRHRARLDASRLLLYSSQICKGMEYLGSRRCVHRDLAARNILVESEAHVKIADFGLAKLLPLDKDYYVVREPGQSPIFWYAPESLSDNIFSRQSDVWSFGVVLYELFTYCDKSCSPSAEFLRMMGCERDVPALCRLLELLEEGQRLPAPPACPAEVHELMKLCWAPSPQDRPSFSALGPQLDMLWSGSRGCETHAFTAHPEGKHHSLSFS
Description: as §3, §4
as §5, with “included […]” for “included 0.001 ng/μl”, “JAK 3” for “JAK 2”, “substrate, 0.75” for “substrate, 2.7”
as §6, §7

T1 sequence (O60674 whole entry): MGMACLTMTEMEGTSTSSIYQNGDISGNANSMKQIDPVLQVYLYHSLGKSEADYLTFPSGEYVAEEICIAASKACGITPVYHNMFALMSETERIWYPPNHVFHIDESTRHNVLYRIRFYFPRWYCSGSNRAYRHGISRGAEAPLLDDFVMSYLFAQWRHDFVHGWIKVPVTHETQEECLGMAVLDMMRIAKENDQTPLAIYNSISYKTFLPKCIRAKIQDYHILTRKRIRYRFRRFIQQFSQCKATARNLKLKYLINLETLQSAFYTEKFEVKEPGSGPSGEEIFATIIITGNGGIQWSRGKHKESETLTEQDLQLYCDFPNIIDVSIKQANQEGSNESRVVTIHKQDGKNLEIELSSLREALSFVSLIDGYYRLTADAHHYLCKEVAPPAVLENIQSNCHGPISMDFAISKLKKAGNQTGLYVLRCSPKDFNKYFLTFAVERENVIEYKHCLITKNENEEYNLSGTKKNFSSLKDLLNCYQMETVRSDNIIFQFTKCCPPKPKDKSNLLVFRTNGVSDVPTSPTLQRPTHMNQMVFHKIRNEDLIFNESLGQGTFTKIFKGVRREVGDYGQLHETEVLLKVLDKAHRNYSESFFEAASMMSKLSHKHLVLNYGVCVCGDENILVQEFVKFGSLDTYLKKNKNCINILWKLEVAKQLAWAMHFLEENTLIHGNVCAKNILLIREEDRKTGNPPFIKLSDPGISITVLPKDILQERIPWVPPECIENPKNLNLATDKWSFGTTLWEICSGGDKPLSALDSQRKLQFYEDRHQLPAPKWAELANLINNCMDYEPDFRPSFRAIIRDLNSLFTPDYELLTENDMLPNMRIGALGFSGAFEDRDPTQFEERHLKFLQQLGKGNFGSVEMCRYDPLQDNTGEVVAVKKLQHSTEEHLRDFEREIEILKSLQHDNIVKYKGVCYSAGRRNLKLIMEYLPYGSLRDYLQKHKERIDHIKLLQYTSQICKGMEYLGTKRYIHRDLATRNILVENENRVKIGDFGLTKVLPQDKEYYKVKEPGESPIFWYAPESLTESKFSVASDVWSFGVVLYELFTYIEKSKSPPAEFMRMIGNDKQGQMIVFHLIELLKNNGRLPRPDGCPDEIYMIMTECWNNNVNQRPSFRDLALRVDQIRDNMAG
T2 sequence (P23458 whole entry): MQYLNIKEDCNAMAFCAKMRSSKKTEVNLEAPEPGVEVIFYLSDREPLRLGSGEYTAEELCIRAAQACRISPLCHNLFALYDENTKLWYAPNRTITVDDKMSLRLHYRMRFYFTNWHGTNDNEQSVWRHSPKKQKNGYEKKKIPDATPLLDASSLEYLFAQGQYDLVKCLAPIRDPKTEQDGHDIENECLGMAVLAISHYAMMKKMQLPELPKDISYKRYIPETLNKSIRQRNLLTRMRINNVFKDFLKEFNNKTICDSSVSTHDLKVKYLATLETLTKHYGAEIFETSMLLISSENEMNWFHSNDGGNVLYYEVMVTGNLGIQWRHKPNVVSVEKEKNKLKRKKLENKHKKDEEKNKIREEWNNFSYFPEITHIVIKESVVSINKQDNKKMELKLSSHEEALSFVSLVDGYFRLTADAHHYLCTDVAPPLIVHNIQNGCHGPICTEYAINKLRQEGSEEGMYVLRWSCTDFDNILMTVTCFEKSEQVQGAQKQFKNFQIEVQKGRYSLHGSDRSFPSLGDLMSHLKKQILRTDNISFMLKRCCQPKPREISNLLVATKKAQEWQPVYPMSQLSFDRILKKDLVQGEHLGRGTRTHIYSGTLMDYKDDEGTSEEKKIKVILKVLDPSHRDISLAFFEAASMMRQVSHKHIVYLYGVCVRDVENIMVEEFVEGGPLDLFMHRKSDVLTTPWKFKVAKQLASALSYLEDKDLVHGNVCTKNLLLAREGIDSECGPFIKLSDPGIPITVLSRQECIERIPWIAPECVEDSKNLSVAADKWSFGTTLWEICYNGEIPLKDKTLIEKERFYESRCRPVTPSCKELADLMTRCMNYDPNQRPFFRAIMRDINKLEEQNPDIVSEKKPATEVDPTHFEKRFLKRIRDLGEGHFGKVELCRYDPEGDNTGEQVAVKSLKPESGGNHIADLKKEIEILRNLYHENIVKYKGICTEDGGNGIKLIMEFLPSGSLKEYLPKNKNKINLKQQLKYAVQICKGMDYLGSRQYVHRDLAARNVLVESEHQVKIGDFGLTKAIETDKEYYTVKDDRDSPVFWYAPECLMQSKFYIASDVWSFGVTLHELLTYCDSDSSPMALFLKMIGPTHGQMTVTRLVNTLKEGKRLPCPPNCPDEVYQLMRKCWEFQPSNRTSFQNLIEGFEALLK

IC50 (JAK2 [1])	IC50 (JAK1 [2])	IC50 (JAK2 [3])	IC50 (JAK1 [4])	IC50 (JAK3 protein)	SMILES	F (Mouse pharmacokinetics)	Cmax (Mouse pharmacokinetics; mouse, po, plasma)	half-life (Mouse pharmacokinetics; mouse, po, plasma)	AUC(0-t) (Mouse pharmacokinetics; mouse, po, plasma, read-out: AUC0-24 hr)
< 10000 nM	< 100 nM	< 100 nM	< 5 nM	< 500 nM	COc1nn(C)cc1Nc1ncc(C)c(-c2c[nH]c3c(NC(N)=O)nccc23)n1 [Example 12]	–	–	–	–
< 10000 nM	100 to 1000 nM	< 100 nM	5 to 50 nM	< 500 nM	CCC(C(=O)Nc1nccc2c(-c3nc(Nc4cn(C)nc4OC)ncc3C)c[nH]c12)N1CCC(N(C)C)CC1 (stereo not drawn) [Example 9]	–	–	–	–
< 10000 nM	< 100 nM	< 100 nM	5 to 50 nM	< 500 nM	CC[C@@H](C(=O)Nc1nccc2c(-c3nc(Nc4cn(C)nc4OC)ncc3C)c[nH]c12)N1CCN(C)CC1 [Example 3, (S)—N-(3-(2-((3-Methoxy-1-methyl-1H-pyrazol-4-yl)amino)-5-methylpyrimidin-4-yl)-1H-pyrrolo[2,3-c]pyridin-7-yl)-2-(4-methylpiperazin-1-yl)butanamide]	–	–	–	–
> 20000 nM	> 1000 nM	100 to 10000 nM	5 to 50 nM	500 to 10000 nM	CCC(C(=O)Nc1nccc2c(-c3nc(Nc4cn(C)nc4OC)ncc3C)c[nH]c12)N1CC(C)N(C)C(C)C1 (stereo not drawn) [Example 10]	–	–	–	–
10000 to 20000 nM	100 to 1000 nM	< 100 nM	5 to 50 nM	< 500 nM	COc1nn(C)cc1Nc1ncc(C)c(-c2c[nH]c3c(NC(=O)[C@@H](C)N4CCOCC4)nccc23)n1 [Example 7]	–	–	–	–
> 20000 nM	100 to 1000 nM	< 100 nM	5 to 50 nM	< 500 nM	CCC(C(=O)Nc1nccc2c(-c3nc(Nc4cn(C)nc4OC)ncc3C)c[nH]c12)N1CCC(O)C1 (stereo not drawn) [Example 8]	–	–	–	–

More lines, now with the values behind:

SMILES	IC50 (JAK2 [1])	IC50 (JAK1 [2])	IC50 (JAK2 [3])	IC50 (JAK1 [4])	IC50 (JAK3 protein)	F (Mouse pharmacokinetics)	Cmax (Mouse pharmacokinetics; mouse, po, plasma)	half-life (Mouse pharmacokinetics; mouse, po, plasma)	AUC(0-t) (Mouse pharmacokinetics; mouse, po, plasma, read-out: AUC0-24 hr)
CC[C@H](C(=O)Nc1nccc2c(-c3nc(Nc4cccc(S(C)(=O)=O)c4F)ncc3C)c[nH]c12)N1CC2CCC(C1)N2C [Example 25, (R)—N-(3-(2-((2-Fluoro-3-(methylsulfonyl)phenyl)amino)-5-methylpyrimidin-4-yl)-1H-pyrrolo[2,3-c]pyridin-7-yl)-2-(8-methyl-3,8-diazabicyclo[3.2.1]octane-3-yl)butanamide]	> 20000 nM	100 to 1000 nM	< 100 nM	< 5 nM	500 to 10000 nM	66.1%	155 ng/mL	3.57 h	946 ng·h/mL
Cc1cnc(Nc2cccc(S(C)(=O)=O)c2F)nc1-c1c[nH]c2c(NC(=O)NC(C)C)nccc12 [Example 30, 1-(3-(2-((2-Fluoro-3-(methylsulfonyl)phenyl)amino)-5-methylpyrimidin-4-yl)-1H-pyrrolo[2,3-c]pyridin-7-yl)-3-isopropylurea]	10000 to 20000 nM	< 100 nM	100 to 10000 nM	5 to 50 nM	< 500 nM	–	–	–	–
CCC(C(=O)Nc1nccc2c(-c3nc(Nc4cccc(S(C)(=O)=O)c4F)ncc3C)c[nH]c12)N1CCN(C)CC1 (stereo not drawn) [Example 19, N-(3-(2-((2-Fluoro-3-(methylsulfonyl)phenyl)amino)-5-methylpyrimidin-4-yl)-1H-pyrrolo[2,3-c]pyridin-7-yl)-2-(4-methylpiperazin-1-yl)butanamide]	> 20000 nM	100 to 1000 nM	100 to 10000 nM	< 5 nM	500 to 10000 nM	–	–	–	–
Cc1cnc(Nc2cccc(S(C)(=O)=O)c2F)nc1-c1c[nH]c2c(NC(=O)NC(C)C)ncnc12 [Example 33]	> 20000 nM	> 1000 nM	100 to 10000 nM	5 to 50 nM	< 500 nM	–	–	–	–
COc1nn(C)cc1Nc1ncc(C)c(-c2c[nH]c3c(Nc4cn(C)nc4OC)nccc23)n1 [Example 5, N-(3-Methoxy-1-methyl-1H-pyrazol-4-yl)-3-(2-((3-methoxy-1-methyl-1H-pyrazole-4-yl)amino)-5-methylpyrimidin-4-yl)-1H-pyrrolo[2,3-c]pyridin-7-amine]	> 20000 nM	100 to 1000 nM	< 100 nM	5 to 50 nM	< 500 nM	–	–	–	–
COCCNC(=O)Nc1nccc2c(-c3nc(Nc4cccc(S(C)(=O)=O)c4F)ncc3C)c[nH]c12 [Example 32]	> 20000 nM	> 1000 nM	< 100 nM	< 5 nM	< 500 nM	–	–	–	–
CCC(C(=O)Nc1nccc2c(-c3nc(Nc4cccc(S(C)(=O)=O)c4F)ncc3C)c[nH]c12)N1CC2CCC(C1)N2C (stereo not drawn) [Example 23, N-(3-(2-((2-Fluoro-3-(methylsulfonyl)phenyl)amino)-5-methylpyrimidin-4-yl)-1H-pyrrolo[2,3-c]pyridin-7-yl)-2-(8-methyl-3,8-diazabicyclo[3.2.1]octane-3-yl)butanamide]	10000 to 20000 nM	100 to 1000 nM	100 to 10000 nM	5 to 50 nM	500 to 10000 nM	–	–	–	–

— patent US12234232B2, “Aromatic heterocyclic compound with kinase inhibitory activity” (SHANGHAI ENNOVABIO PHARMACEUTICALS CO., LTD., priority 2018, dated 2025)
